The text below walks through data of patent publication US8926944B2, “Radiolabeled prostate specific membrane antigen inhibitors” (Molecular Insight Pharmaceuticals, priority 2011, dated 2015).

Data set [1] concerns LNCap tumor cells. The data set is described as follows: tissue biodistribution study in LNCap xenograft mice. It counts as in vivo. The settings on record: 177Lu complex; for concentration in kidneys versus LNCap tumor cells: 4 hours post administration; for concentration in LNCap tumor cells versus kidney: 24 hours and 96 hours post administration; for change of concentration in kidney: later time intervals (24 and 96 hours). The method, then:
FIG. 2 is a graph of the tissue biodistribution of a ^111In analog of the compound of Example 3, in LNCap Xenograft mice.
FIGS. 1A and 1B illustrate results of a bio-distribution study in LNCap xenograft mice of a GUG-DOTA-^177Lu complex (compound (A)) and a GUL-DOTA-^177Lu complex (compound (B)) according to Formula II.
In contrast, the inventive compounds accumulate within tumor cells with only a slight decrease in intratumoral concentration observed after 96 hours.
FIG. 2 illustrates results of a bio-distribution study in LNCap xenograft mice using a GUL-DOTA-^111In complex and a hydrophobic aminohexanoic acid linker. […] The inventors hypothesize that the low biodistribution of MIP-1450 LNCap tumor cells may be due to this compounds low affinity for PSMA expressed on the surface of LNCap cells. As stated above, it was unexpectedly that presence of carboxylic acid groups in the linker region increased affinity of Formula I compounds for PSMA. This increase in binding affinity is due, at least in part to additional cooperative binding interactions of the free carboxylic acid groups with amino acid residues of PSMA. Illustrative of Formula I compound-radionuclide complexes that have one or more carboxylic acid groups as part of the linker group include without limitation the following compounds: […]

In data set [2] the target is T1, PSMA (Homo sapiens, UniProt Q04609).
T1 construct: host or cells: LNCaP human prostate cancer cells
The data set is described as follows: competitive binding assay against 123I-DCIT in PSMA positive LNCaP cells. As to conditions: Lu complexes; competition with 3 nM 123I DCIT on LNCaP cells, 1 hour at room temperature. The method, then:
The compounds of Formula I or Formula II were screened in a human prostate cancer cell binding assay using PSMA positive (+), LnCap cells.
Briefly, LNCaP and PC3 human prostate cancer cells were obtained from American Type Culture Collection, Rockville, Md. LNCaP cells were maintained in RPMI-1640 medium supplemented with 10% fetal bovine serum (FBS). Binding of the radiolabeled compound and competition with cold derivatives to LNCaP cells was performed according to published methods. Cells were plated in 12-well plates at approximately 4×10^5 cells/well and incubated for 48 hours in a humidified incubator at 37° C./5% carbon dioxide prior to addition of compound. Solutions of the Formula I or Formula II compounds were prepared and diluted in serum-free cell culture medium containing 0.5% bovine serum albumin (BSA) in combination with 3 nM ^123I DCIT (known inhibitor). Total binding was determined by incubating ^123I-DCIT without test compound. Plates were incubated at room temperature for 1 hour. Cells were removed from the plates and transferred to eppendorff tubes. Samples were microcentrifuged for 15 seconds at 10K×g. The medium was aspirated and the pellet was washed twice by dispersal in fresh assay medium followed by microcentrifugation. Cell binding of ^123I DCIT was determined by counting the cell pellet in an automated gamma counter. Nonspecific binding was determined as the counts associated with the cells after incubating with 2 uM nonradiolabeled compound or 2-phosphonomethyl-pentanedioic acid (PMPA). Table 3 illustrates the IC50 values of representative Formula II complexes.

T1 sequence (Q04609 whole entry): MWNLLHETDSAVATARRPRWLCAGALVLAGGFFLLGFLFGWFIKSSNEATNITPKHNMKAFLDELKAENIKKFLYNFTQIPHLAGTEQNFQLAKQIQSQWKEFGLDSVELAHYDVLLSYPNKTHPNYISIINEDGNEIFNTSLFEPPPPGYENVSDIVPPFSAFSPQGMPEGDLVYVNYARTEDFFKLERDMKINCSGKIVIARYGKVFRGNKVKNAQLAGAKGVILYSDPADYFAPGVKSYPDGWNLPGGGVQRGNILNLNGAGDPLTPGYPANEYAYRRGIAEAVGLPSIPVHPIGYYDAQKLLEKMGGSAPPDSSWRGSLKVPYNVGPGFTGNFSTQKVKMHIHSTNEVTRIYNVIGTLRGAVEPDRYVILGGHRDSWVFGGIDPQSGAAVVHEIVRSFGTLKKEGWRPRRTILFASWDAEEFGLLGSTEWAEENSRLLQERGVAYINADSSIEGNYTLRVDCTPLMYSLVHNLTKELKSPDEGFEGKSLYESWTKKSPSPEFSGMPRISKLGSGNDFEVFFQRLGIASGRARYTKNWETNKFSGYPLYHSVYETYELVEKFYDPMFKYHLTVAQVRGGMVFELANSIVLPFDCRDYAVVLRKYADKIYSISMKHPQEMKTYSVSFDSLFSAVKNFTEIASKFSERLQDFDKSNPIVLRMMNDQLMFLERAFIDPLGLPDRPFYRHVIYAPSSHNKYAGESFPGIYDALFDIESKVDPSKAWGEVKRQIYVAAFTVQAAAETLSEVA

Turning to `O=C(O)CC[C@H](NC(=O)N[C@@H](CCCCNC(=O)[C@H](Cc1ccc2ccccc2c1)NC(=O)CCCCCNC(=S)Nc1ccc(CC2CN(CC(=O)O)CCN(CC(=O)O)CCN(CC(=O)O)CCN2CC(=O)O)cc1)C(=O)O)C(=O)O.[177Lu]` (stereo partly drawn) [B, ^177Lu-complex of (10S,17S,21S)-10-(naphthalen-2-ylmethyl)-8,11,19-trioxo-1-((4-((1,4,7,10-tetrakis(carboxymethyl)-1,4,7,10-tetraazacyclododecan-2-yl)methyl)phenyl)amino)-1-thioxo-2,9,12,18,20-pentaazatricosane-17,21,23-tricarboxylic acid], in data set [1], the “concentration in kidneys versus LNCap tumor cells” value is on record as “concentrate to a greater extent in the kidneys than LNCap tumor cells”, the “concentration in LNCap tumor cells versus kidney” value is recorded as “the concentration is greater in LNCap tumor cells than kidney” and the “change of concentration in kidney” value is “significant reduction”. Usually IC50 stands for the concentration that gives 50% inhibition. Regarding “(3S,7S,14S,17S)-14-benzyl-5,13,16-trioxo-17-(6-(3-(4-((S)-1,4,7,10-tetrakis(carboxymethyl)-1,4,7,10-tetraazacyclododecan-2-yl)methyl)phenyl)thioureido)hexanamido)-4,6,12,15-tetraazanonadecane-1,3,7,19-tetracarboxylate Lu complex [Lu-MIP-1531]”, the IC50 in data set [2] came out at 28 nM. On to “(10S,13S,20S,24S)-13-(2-carboxyethyl)-10-(4-fluorobenzyl)-8,11,14,22-tetraoxo-1-((4-((1,4,7,10-tetrakis(carboxymethyl)-1,4,7,10-tetraazacyclododecan-2-yl)methyl)phenyl)amino)-1-thioxo-2,9,12,15,21,23-hexaazahexacosane-20,24,26-tricarboxylate Lu complex [Lu-MIP-1550]”, for which the IC50 in data set [2] worked out at 22 nM. Still for that read-out and setting: in the case of “(10S,17S,21S)-10-(2-carboxyethyl)-8,11,19-trioxo-1-((4-((1,4,7,10-tetrakis(carboxymethyl)-1,4,7,10-tetraazacyclododecan-2-yl)methyl)phenyl)amino)-1-thioxo-2,9,12,18,20-pentaazatricosane-17,21,23-tricarboxylate Lu complex [Lu-MIP-1523]” it was 54 nM; in that of “(10S,17S,21S)-10-(4-fluorobenzyl)-8,11,19-trioxo-1-((4-((1,4,7,10-tetrakis(carboxymethyl)-1,4,7,10-tetraazacyclododecan-2-yl)methyl)phenyl)amino)-1-thioxo-2,9,12,18,20-pentaazatricosane-17,21,23-tricarboxylate Lu complex [Lu-MIP-1546]”, 15 nM. “(10S,17S,21S)-10-(naphthalen-2-ylmethyl)-8,11,19-trioxo-1-((4-((1,4,7,10-tetrakis(carboxymethyl)-1,4,7,10-tetraazacyclododecan-2-yl)methyl)phenyl)amino)-1-thioxo-2,9,12,18,20-pentaazatricosane-17,21,23-tricarboxylate Lu complex [Lu-MIP-1545]”: the IC50 in data set [2] was determined as 10 nM. Take “(10S,17S,21S)-10-benzyl-8,11,19-trioxo-1-((4-((1,4,7,10-tetrakis(carboxymethyl)-1,4,7,10-tetraazacyclododecan-2-yl)methyl)phenyl)amino)-1-thioxo-2,9,12,18,20-pentaazatricosane-17,21,23-tricarboxylate-Lu complex [Lu-MIP-1530]”: the IC50 in data set [2] was 21 nM. Same read-out and setting: the value for “(11S,16S,20S)-11-(2-carboxyethyl)-10,13,18-trioxo-1-((4-((1,4,7,10-tetrakis(carboxymethyl)-1,4,7,10-tetraazacyclododecan-2-yl)methyl)phenyl)amino)-1-thioxo-2,9,12,17,19-pentaazadocosane-16,20,22-tricarboxylate Lu complex [Lu-MIP-1519]” was 12 nM; that for “(11S,16S,20S)-11-benzyl-10,13,18-trioxo-1-((4-((1,4,7,10-tetrakis(carboxymethyl)-1,4,7,10-tetraazacyclododecan-2-yl)methyl)phenyl)amino)-1-thioxo-2,9,12,17,19-pentaazadocosane-16,20,22-tricarboxylate Lu complex [Lu-MIP-1548]” was 77 nM; that for “(13S,17S)-10,15-dioxo-1-((4-((1,4,7,10-tetrakis(carboxymethyl)-1,4,7,10-tetraazacyclododecan-2-yl)methyl)phenyl)amino)-1-thioxo-2,9,14,16-tetraazanonadecane-13,17,19-tricarboxylate Lu complex [Lu-MIP-1526]” was 78 nM. On the same count and under the same terms, in the case of “(16S,20S)-10,18-dioxo-1-((4-((1,4,7,10-tetrakis(carboxymethyl)-1,4,7,10-tetraazacyclododecan-2-yl)methyl)phenyl)amino)-1-thioxo-2,11,17,19-tetraazadocosane-16,20,22-tricarboxylate Lu complex [Lu-MIP-1512]” it was 23 nM.

As to “^177Lu-complex of (11S,16S,20S)-11-(2-carboxyethyl)-10,13,18-trioxo-1-((4-((1,4,7,10-tetrakis(carboxymethyl)-1,4,7,10-tetraazacyclododecan-2-yl)methyl)phenyl)amino)-1-thioxo-2,9,12,17,19-pentaazadocosane-16,20,22-tricarboxylate”, in data set [1], the “concentration in kidneys versus LNCap tumor cells” value is “concentrate to a greater extent in the kidneys than LNCap tumor cells”, the “concentration in LNCap tumor cells versus kidney” value is recorded as “the concentration is greater in LNCap tumor cells than kidney” and the “change of concentration in kidney” value is recorded as “significant reduction”.
